Assay results from article PMC11189555, “Aryl amino acetamides prevent Plasmodium falciparum ring development via targeting the lipid-transfer protein PfSTART1” (Nature Communications, 2024).
Several values for one entry are separate records, joined by “and”; a condition that tells them apart may be missing. Equal values may be shown once. Entries after “also recorded” stand apart in the source; their conditions may differ.

Legend:
[1] = test system: parasitophorous vacuole membrane of newly invaded merozoites; assay: Lattice light sheet imaging and vacuole tracking; assay type: cell-based, Plasmodium falciparum; conditions: 60 nM W-991 vs DMSO
Description: Parasites were sorbitol synchronised at days 5 and 2 prior to filming. To prepare the parasites for filming, culture was loaded on LS columns attached to MACS MultiStand (Miltenyi Biotec) to isolate late-stage parasites. Imaging medium was prepared by adding 10 μM Trolox (Santa Cruz 53188-07-1) to the culture medium. To compare the effect of drug treatment on parasite invasion, either 60 nM of W-991 or an equivalent DMSO concentration was added to the imaging medium. RBCs were resuspended at 0.5% hematocrit in RPMI-HEPES supplemented with 0.2% sodium bicarbonate and stained with 1.5 μM Di-4-[…] (Invitrogen D36802) membrane marker for 1 h at 37 °C. The stained RBCs were then washed 3 x and resuspended in imaging medium. Purified schizonts were resuspended in culture medium and incubated with 25 nM Mitotracker Deep Red FM (Invitrogen M22426) for 30 min at 37 °C, 5% CO2. The stained schizonts were then pelleted and the supernatant removed before resuspending the schizonts in the imaging medium. Before imaging, imaging medium with drug was loaded to a well and imaging medium with DMSO control was loaded to another well on an 8-well glass bottom plate (Ibidi 80807). Stained RBCs and stained schizonts were then added to each well and let settle for 30 min. The imaging experiments were performed on Zeiss Lattice Lightsheet 7. […]

[2] = test system: P. berghei sporozoites invading HC-04 human liver cells; assay: In vitro liver invasion assay; assay type: cell-based, Plasmodium berghei
Description: P. berghei ANKA constitutively expressing mCherry[82] was used for the in vitro liver stage invasion assay. Animals used for the generation of the sporozoites were 4- to 5-week-old male Swiss Webster mice and were purchased from the Monash Animal Services (Melbourne, Victoria, Australia) and housed at 22 to 25 °C on a 12 h light/dark cycle with 40-70% humidity at the School of Biosciences, The University of Melbourne, Australia. All animal experiments were in accordance with the Prevention of Cruelty to Animals Act 1986, the Prevention of Cruelty to Animals Regulations 2008, and National Health and Medical Research Council (2013) Australian code for the care and use of animals for scientific purposes. These experiments were reviewed and permitted by the Melbourne University Animal Ethics Committee (2015123).
Infections of naïve Swiss mice were carried out by intraperitoneal (IP) inoculation obtained from a donor mouse between the first and fourth passages from cryopreserved stock. Parasitemia was monitored by Giemsa smear and exflagellation quantified 3 days post-infection. A. stephensi mosquitoes were allowed to feed on anaesthetised mice once the exflagellation rate was assessed between about 12 to 15 exflagellation events per 1 × 10^4 RBCs. Salivary glands of infected mosquitoes (days 17 to 24 post-infection) were isolated by dissection and parasites placed into RPMI-1640 media.
This was performed essentially as described[83] with the minor variations outlined in the Supplementary Information. […]
In vitro liver invasion assays. This was performed essentially as described16 with the following variations. In vitro human liver HCO4 cells (ATCC) were seeded at 1 × 10^5 cells/mL, grown for 24 h and then infected for 2 h with 30,000 Pb ANKA mCherry […]
expressing sporozoites. Following fixation, an IFA with anti -CSP antibody (1:500) followed by anti-mouse Alexafluor 488 (1:1 ,000; Invitrogen, Carlsbad, CA, USA) labels uninvaded parasites. Fluorescence signal was assessed using an Olympus CKX41 epifluorescence microscope. […]
Gametogenesis was then triggered by the addition of 10 μL ookinete medium (gametocyte culture medium supplemented with 100 μM xanthurenic acid and 0.27 µg/mL Cy3-labelled anti-Pfs25 antibody) to each well at room temperature. Plates were then cooled on a metal block at 4°C for four min to ensure even cooling and then stabilised for a further 4 min at 28°C. At 20 min post-induction, male gametogenesis was recorded in each well by automated brightfield microscopy using a x4 objective lens and 1.5x magnifier (x6 effective magnification). Afterward, plates were incubated in the dark at room temperature for 24 h and then female gametogenesis recorded in each well by automated fluorescence microscopy (anti-Pfs25-positive cells). All experiments were performed in quadruplicate with DMSO and cabamiquine (DDD107498)17 as negative and positive controls respectively. All data was evaluated in comparison to the positive and negative controls to calculate percentage inhibition of male and female gametocytes, and dose response analysis and IC50 calculation performed using GraphPad Prism. […]
The pellet was subjected to five

CC(C)(Nc1ccc(Cl)c(S(=O)(=O)N2CCOCC2)c1)C(=O)Nc1ccc(F)c(Cl)c1 [W-991]
shape/sphericity of the PVM of newly invaded merozoites ([1]; p = 0.045 at 15 min): remained spherical
mean vacuole surface area and volume of the PVM ([1]; p = 0.109, p = 0.129): reduced in W-991 but this did not reach significance
P. berghei sporozoite invasion ([2]; 2 h incubation with HC-04 cells, p > 0.05): showed no defect in invasion; also recorded: had no impact
Liver stage invasion assay: in ([2]; count of sporozoites inside cells, Replicate 1 and 2): 58 and 121
Liver stage invasion assay: out ([2]; count of sporozoites outside cells, Replicate 1 and 2): 92 and 153
Liver stage invasion assay: ratio ([2]; in relative to in + out, Replicate 1 and 2): 38.6667 and 44.1606
